Measurements published in patent US20230114728A1 (Venatorx Pharmaceuticals, Inc., priority 2019, published 2023).
In brackets after ≈: the same amount, converted by molar mass. Read-outs that look alike come from different tables or passages of the source.

Legend:
[1] = Bocillin-FL fluorescence polarization competition binding assay, A. baumannii PBP3; settings: fluorescence polarization competition binding assay using Bocillin-FL; column 3; read-out: 4. baumannii PBP1a Potency
Procedure, shortened: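 Fluorescence polarization (ex 490/em 520 nm) competition of inhibitors against Bocillin-FL at 0.1 μM, read up to 60 min. Final PBP levels: E. coli PBP3 1.5 μM; A. baumannii PBP2 2.5 μM, PBP3 0.2 μM in Tris pH 8.0/NaCl/glycerol/Tween 20; N. gonorrhoeae PBP2 […] in Hepes pH 8.0/NaCl/glycerol. EC50 = concentration halving PBP-bound Bocillin-FL.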

N. gonorrhoeae WHO G = assay: Liquid broth MIC in Fastidious broth; type: cell-based; settings: Neisseria gonorrhoeae, read-out: Minimum Inhibitory Concentration, N. gonorrhoeae WHO G
Procedure, shortened: (§1)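 Colonies were swabbed from chocolate agar after 24 h growth and standardised by optical density at 600 nm. Compounds were serially diluted twofold in Fastidious broth, and bacteria added to give 5×10^5 CFU/mL. After about 24 h at 36 °C in 5% CO2, the lowest concentration allowing under 10% growth was taken as MIC.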

N. gonorrhoeae WHO K = assay: Liquid broth MIC in Fastidious broth; type: cell-based; settings: Neisseria gonorrhoeae, read-out: Minimum Inhibitory Concentration, N. gonorrhoeae WHO K
Procedure, shortened: (§2)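 Strains bearing mosaic PBP2 grown 24 h on chocolate agar (36° C, 5% CO2), suspended in saline and added to 2-fold compound dilutions in Fastidious broth at 5×10^5 CFU/mL. After ~24 hours at 36° C with 5% CO2, MIC taken visually as lowest well with <10% growth relative to full growth.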

N. gonorrhoeae H041 = assay: Liquid broth MIC in Fastidious broth; type: cell-based; settings: Neisseria gonorrhoeae, H041, read-out: Minimum Inhibitory Concentration, N. gonorrhoeae H041
Procedure, shortened: as §2

N. gonorrhoeae WHO Z = assay: Liquid broth MIC in Fastidious broth; type: cell-based; settings: Neisseria gonorrhoeae, read-out: Minimum Inhibitory Concentration, N. gonorrhoeae WHO Z
Procedure, shortened: as §2

N. gonorrhoeae WHO L = assay: Liquid broth MIC in Fastidious broth; type: cell-based; settings: Neisseria gonorrhoeae, read-out: Minimum Inhibitory Concentration, N. gonorrhoeae WHO L
Procedure, shortened: as §1

[2] = test system: N. gonorrhoeae ATCC 49226; assay: Liquid broth MIC in Fastidious broth; type: cell-based; settings: Neisseria gonorrhoeae, ATCC49226; N. gonorrhoeae strain ATCC 49226; Fastidious broth; read-out: Minimum Inhibitory Concentration, N. gonorrhoeae ATCC 49226
Procedure, shortened: as §1

N. gonorrhoeae FA1090 = assay: Liquid broth MIC in Fastidious broth; type: cell-based; settings: Neisseria gonorrhoeae; N. gonorrhoeae strain FA1090; Fastidious broth; read-out: Minimum Inhibitory Concentration, N. gonorrhoeae FA1090
Procedure, shortened: as §1

N. gonorrhoeae WHO Q = assay: Liquid broth MIC in Fastidious broth; type: cell-based; settings: Neisseria gonorrhoeae, read-out: Minimum Inhibitory Concentration, N. gonorrhoeae WHO Q
Procedure, shortened: as §2

[3] = N. gonorrhoeae strain WHO G, Fastidious broth
[4] = N. gonorrhoeae strain WHO L, Fastidious broth

NCCN1CCN(C(=O)N[C@@H](C(=O)N[C@H]2Cc3cccc(C(=O)O)c3OB2O)c2ccc(C(=O)O)cc2)C(=O)C1=O (single isomer, unassigned) [Example 84]
EC50 [1]: 30 to 100 µM | MIC (N. gonorrhoeae WHO G; [3]): 1 to 2 µg/mL (≈ 1.76 to 3.53 µM) | MIC (N. gonorrhoeae WHO K): 16 to 32 µg/mL (≈ 28.2 to 56.4 µM) | MIC (N. gonorrhoeae H041): > 64 µg/mL | MIC (N. gonorrhoeae WHO Z): 16 to 32 µg/mL (≈ 28.2 to 56.4 µM) | MIC (N. gonorrhoeae WHO L; [4]): 16 to 32 µg/mL (≈ 28.2 to 56.4 µM) | MIC [2]: 4 to 8 µg/mL (≈ 7.05 to 14.1 µM) | MIC (N. gonorrhoeae FA1090): 1 to 2 µg/mL (≈ 1.76 to 3.53 µM) | MIC (N. gonorrhoeae WHO Q): 16 to 32 µg/mL (≈ 28.2 to 56.4 µM)

NCCN1CCN(C(=O)N[C@H](C(=O)N[C@H]2Cc3cccc(C(=O)O)c3OB2O)c2ccc(O)cc2Cl)C(=O)C1=O (single isomer, unassigned) [Example 85]
EC50 [1]: > 100 µM | MIC (N. gonorrhoeae WHO G; [3]): > 64 µg/mL | MIC (N. gonorrhoeae WHO K): > 64 µg/mL | MIC (N. gonorrhoeae H041): > 64 µg/mL | MIC (N. gonorrhoeae WHO Z): > 64 µg/mL | MIC (N. gonorrhoeae WHO L; [4]): > 64 µg/mL | MIC [2]: > 64 µg/mL | MIC (N. gonorrhoeae FA1090): 4 to 8 µg/mL (≈ 6.97 to 13.9 µM) | MIC (N. gonorrhoeae WHO Q): > 64 µg/mL

NCCN1CCN(C(=O)N[C@@H](C(=O)N[C@H]2Cc3cccc(C(=O)O)c3OB2O)c2ccc(O)cc2Cl)C(=O)C1=O (single isomer, unassigned) [Example 86]
EC50 [1]: 10 to 30 µM | MIC (N. gonorrhoeae WHO G; [3]): 4 to 8 µg/mL (≈ 6.97 to 13.9 µM) | MIC (N. gonorrhoeae WHO K): > 64 µg/mL | MIC (N. gonorrhoeae H041): > 64 µg/mL | MIC (N. gonorrhoeae WHO Z): > 64 µg/mL | MIC (N. gonorrhoeae WHO L; [4]): > 64 µg/mL | MIC [2]: > 64 µg/mL | MIC (N. gonorrhoeae FA1090): 1 to 2 µg/mL (≈ 1.74 to 3.49 µM) | MIC (N. gonorrhoeae WHO Q): > 64 µg/mL

O=C(O)c1ccc(C(NC(=O)N2CCN(CCNC(=O)c3ccc(O)c(O)c3Cl)C(=O)C2=O)C(=O)N[C@H]2Cc3ccc(F)c(C(=O)O)c3OB2O)cc1F (stereo partly drawn) [Example 11, (3R)-3-(2-(4-carboxy-3-fluorophenyl)-2-(4-(2-(2-chloro-3,4-dihydroxybenzamido)ethyl)-2,3-dioxopiperazine-1-carboxamido)acetamido)-7-fluoro-2-hydroxy-3,4-dihydro-2H-benzo[e][1,2]oxaborinine-8-carboxylic acid]
EC50 [1]: 10 to 30 µM | MIC (N. gonorrhoeae WHO G; [3]): 4 to 8 µg/mL (≈ 5.17 to 10.3 µM) | MIC (N. gonorrhoeae WHO K): > 64 µg/mL | MIC (N. gonorrhoeae H041): > 64 µg/mL | MIC (N. gonorrhoeae WHO Z): 16 to 32 µg/mL (≈ 20.7 to 41.4 µM) | MIC (N. gonorrhoeae WHO L; [4]): > 64 µg/mL | MIC [2]: 16 to 32 µg/mL (≈ 20.7 to 41.4 µM) | MIC (N. gonorrhoeae FA1090): 1 to 2 µg/mL (≈ 1.29 to 2.58 µM)

CCN1CCN(C(=O)NC(C(=O)N[C@H]2Cc3ccc(F)c(C(=O)O)c3OB2O)c2ccc(C(=O)O)cc2)C(=O)C1=O (stereo partly drawn) [Example 15, (3R)-3-(2-(4-carboxyphenyl)-2-(4-ethyl-2,3-dioxopiperazine-1-carboxamido)acetamido)-7-fluoro-2-hydroxy-3,4-dihydro-2H-benzo[e][1,2]oxaborinine-8-carboxylic acid]
EC50 [1]: > 100 µM | MIC (N. gonorrhoeae WHO G; [3]): 4 to 8 µg/mL (≈ 7.01 to 14 µM) | MIC (N. gonorrhoeae WHO K): 4 to 8 µg/mL (≈ 7.01 to 14 µM) | MIC (N. gonorrhoeae H041): 4 to 8 µg/mL (≈ 7.01 to 14 µM) | MIC (N. gonorrhoeae WHO Z): 1 to 2 µg/mL (≈ 1.75 to 3.51 µM) | MIC (N. gonorrhoeae WHO L; [4]): > 64 µg/mL | MIC [2]: 4 to 8 µg/mL (≈ 7.01 to 14 µM) | MIC (N. gonorrhoeae FA1090): 0.25 to 0.5 µg/mL (≈ 0.438 to 0.877 µM)

CCN1CCN(C(=O)NC(C(=O)N[C@H]2Cc3cccc(C(=O)O)c3OB2O)c2ccc(C(=O)O)c(F)c2)C(=O)C1=O (stereo partly drawn) [Example 31, (3R)-3-(2-(4-carboxy-3-fluorophenyl)-2-(4-ethyl-2,3-dioxopiperazine-1-carboxamido)acetamido)-2-hydroxy-3,4-dihydro-2H-benzo[e][1,2]oxaborinine-8-carboxylic acid]
EC50 [1]: < 10 µM | MIC (N. gonorrhoeae WHO G; [3]): 1 to 2 µg/mL (≈ 1.75 to 3.51 µM) | MIC (N. gonorrhoeae WHO K): 4 to 8 µg/mL (≈ 7.01 to 14 µM) | MIC (N. gonorrhoeae H041): 4 to 8 µg/mL (≈ 7.01 to 14 µM) | MIC (N. gonorrhoeae WHO Z): 1 to 2 µg/mL (≈ 1.75 to 3.51 µM) | MIC (N. gonorrhoeae WHO L; [4]): 4 to 8 µg/mL (≈ 7.01 to 14 µM) | MIC [2]: 1 to 2 µg/mL (≈ 1.75 to 3.51 µM) | MIC (N. gonorrhoeae FA1090): < 0.125 µg/mL

O=C(O)c1c(F)ccc2c1OB(O)[C@@H](NC(=O)C(NC(=O)N1CCN(CCF)C(=O)C1=O)c1c(F)cc(O)c(O)c1F)C2 (stereo partly drawn) [Example 37, (3R)-3-(2-(2,6-difluoro-3,4-dihydroxyphenyl)-2-(4-(2-fluoroethyl)-2,3-dioxopiperazine-1-carboxamido)acetamido)-7-fluoro-2-hydroxy-3,4-dihydro-2H-benzo[e][1,2]oxaborinine-8-carboxylic acid]
EC50 [1]: 30 to 100 µM | MIC (N. gonorrhoeae WHO G; [3]): 16 to 32 µg/mL (≈ 26.1 to 52.3 µM) | MIC (N. gonorrhoeae WHO K): 16 to 32 µg/mL (≈ 26.1 to 52.3 µM) | MIC (N. gonorrhoeae H041): 16 to 32 µg/mL (≈ 26.1 to 52.3 µM) | MIC (N. gonorrhoeae WHO L; [4]): > 64 µg/mL | MIC [2]: 16 to 32 µg/mL (≈ 26.1 to 52.3 µM) | MIC (N. gonorrhoeae FA1090): 4 to 8 µg/mL (≈ 6.53 to 13.1 µM)

O=C(O)c1c(F)ccc2c1OB(O)[C@@H](NC(=O)C(NC(=O)N1CCN(CCBr)C(=O)C1=O)c1c(F)cc(O)c(O)c1F)C2 (stereo partly drawn) [Example 38, (3R)-3-(2-(4-(2-bromoethyl)-2,3-dioxopiperazine-1-carboxamido)-2-(2,6-difluoro-3,4-dihydroxyphenyl)acetamido)-7-fluoro-2-hydroxy-3,4-dihydro-2H-benzo[e][1,2]oxaborinine-8-carboxylic acid]
EC50 [1]: 10 to 30 µM | MIC (N. gonorrhoeae WHO G): 16 to 32 µg/mL (≈ 23.8 to 47.5 µM) | MIC (N. gonorrhoeae WHO K): > 64 µg/mL | MIC (N. gonorrhoeae H041): > 64 µg/mL | MIC (N. gonorrhoeae WHO L): > 64 µg/mL | MIC [2]: 16 to 32 µg/mL (≈ 23.8 to 47.5 µM) | MIC (N. gonorrhoeae FA1090): 4 to 8 µg/mL (≈ 5.94 to 11.9 µM)

NCCCN1CCN(C(=O)NC(C(=O)N[C@H]2Cc3cccc(C(=O)O)c3OB2O)c2ccc(C(=O)O)cc2)C(=O)C1=O (stereo partly drawn) [Example 39, (3R)-3-(2-(4-(3-aminopropyl)-2,3-dioxopiperazine-1-carboxamido)-2-(4-carboxyphenyl)acetamido)-2-hydroxy-3,4-dihydro-2H-benzo[e][1,2]oxaborinine-8-carboxylic acid]
EC50 [1]: 30 to 100 µM | MIC (N. gonorrhoeae WHO G; [3]): 4 to 8 µg/mL (≈ 6.88 to 13.8 µM) | MIC (N. gonorrhoeae WHO K): > 64 µg/mL | MIC (N. gonorrhoeae H041): > 64 µg/mL | MIC (N. gonorrhoeae WHO L; [4]): 16 to 32 µg/mL (≈ 27.5 to 55 µM) | MIC [2]: 4 to 8 µg/mL (≈ 6.88 to 13.8 µM) | MIC (N. gonorrhoeae FA1090): 1 to 2 µg/mL (≈ 1.72 to 3.44 µM)

CCN1CCN(C(=O)NC(C(=O)N[C@H]2Cc3ccc(F)c(C(=O)O)c3OB2O)c2cc(F)c(O)c(O)c2Cl)C(=O)C1=O (stereo partly drawn) [Example 42, (3R)-3-(2-(2-chloro-5-fluoro-3,4-dihydroxyphenyl)-2-(4-ethyl-2,3-dioxopiperazine-1-carboxamido)acetamido)-7-fluoro-2-hydroxy-3,4-dihydro-2H-benzo[e][1,2]oxaborinine-8-carboxylic acid]
EC50 [1]: 30 to 100 µM | MIC (N. gonorrhoeae WHO G; [3]): 16 to 32 µg/mL (≈ 26.2 to 52.4 µM) | MIC (N. gonorrhoeae WHO K): 16 to 32 µg/mL (≈ 26.2 to 52.4 µM) | MIC (N. gonorrhoeae H041): 16 to 32 µg/mL (≈ 26.2 to 52.4 µM) | MIC (N. gonorrhoeae WHO L; [4]): > 64 µg/mL | MIC [2]: 16 to 32 µg/mL (≈ 26.2 to 52.4 µM) | MIC (N. gonorrhoeae FA1090): 4 to 8 µg/mL (≈ 6.55 to 13.1 µM)

O=C(O)c1ccc(C(NC(=O)c2c(F)cc(O)c(O)c2Cl)C(=O)N[C@H]2Cc3ccc(F)c(C(=O)O)c3OB2O)cc1F (stereo partly drawn) [Example 71, (3R)-3-(2-(4-carboxy-3-fluorophenyl)-2-(2-chloro-6-fluoro-3,4-dihydroxybenzamido)acetamido)-7-fluoro-2-hydroxy-3,4-dihydro-2H-benzo[e][1,2]oxaborinine-8-carboxylic acid]
EC50 [1]: > 100 µM | MIC (N. gonorrhoeae WHO G; [3]): > 64 µg/mL | MIC (N. gonorrhoeae WHO K): > 64 µg/mL | MIC (N. gonorrhoeae H041): > 64 µg/mL | MIC (N. gonorrhoeae WHO Z): > 64 µg/mL | MIC (N. gonorrhoeae WHO L; [4]): > 64 µg/mL | MIC [2]: > 64 µg/mL | MIC (N. gonorrhoeae FA1090): > 64 µg/mL | MIC (N. gonorrhoeae WHO Q): > 64 µg/mL
